Data on five molecules can be found in paper PMC11374660, “The novel family of Warbicin® compounds inhibits glucose uptake both in yeast and human cells and restrains cancer cell proliferation” (Frontiers in Oncology, 2024).

Series [1] deals with hxk2Δ hxk1Δ GLK1 yeast cells. The series can be described thus: Sugar uptake in hxk2Δ hxk1Δ GLK1 yeast cells. Format: cell-based, S. cerevisiae. As to conditions: 250 µM CCCP or 50 µM WBC-A 10 min prior; 100 mM maltose with the tracer. How it is done: (§1) Zero-trans uptake of radioactively labeled [U-^14C]glucose, [U-^14C]fructose or [U-^14C]galactose by S. cerevisiae cells was determined in accordance with previous studies ([45], [75]). Cells were grown on different carbon sources depending on the experiment. For measuring glucose uptake activity in the tps1Δ and tps1Δ hxtΔ strains, cells were grown on YP medium containing 325 mM glycerol (measurement of 10 s). Typically, for compound characterization and kinetic studies in wild type and tps1Δ strains, cells were (pre)grown on Complete Synthetic medium supplemented with 110 mM galactose (measurement of 10 s). In the experiments on the influence of hexokinase activity on the sugar uptake rate, the measurement duration was shortened to 5 s and cells were always grown on YP medium containing 325 mM glycerol and 430 mM ethanol. After harvesting, cells were washed twice with ice-cold 25 mM MES-buffer pH 6, and resuspended in their respective medium without sugar to a final concentration of 45 mg (wet weight)/mL. The amount of added tracer was estimated to give a response close to at least 1000 counts per min in order to adequately counter background noise. Cells were first preincubated for 10 min at 30°C with the compound to acclimate the cells to the temperature and to allow adequate interaction with the compound prior to uptake. Next, hexose sugar was mixed with the cell suspension, which was then incubated at 30°C for 5 or 10 s, depending on the experiment, after which the cells were rapidly filtered over a glass microfiber filter (Whatman GF/C) and washed three times with ice-cold dH2O. The loaded filter was transferred to a scintillation vial containing 3 mL liquid scintillation cocktail (Ultima-Flo M, Perkin Elmer) and counted using the Hidex 300 SL. Three blank measurements per strain were typically included to account for background signal, for which the cells were first quenched before adding the radioactive label.

Series [2] concerns yeast tps1Δ strain. Nature of the series: Growth (rescue) of the yeast tps1Δ strain on galactose with or without glucose. Format: cell-based, S. cerevisiae. The conditions noted are these: 2.5 mM glucose. How it is done: Growth curves were made by measuring OD595 in a 96-well plate using the Multiskan™ FC Microplate Photometer (Thermo Fisher Scientific). Typically, for tps1Δ rescue experiments, cells were (pre)grown in Complete Synthetic medium containing 110 mM galactose. Compounds were always added 10 min prior to glucose addition to ensure maximal interaction between the cells and compounds. Cells originating from the preculture were harvested, washed in medium without sugar, after which they were resuspended to an OD of 0.1 in 200 µL of the appropriate medium. At least three technical replicates were included per condition. OD595 was measured at 30°C every 30 min with a 10-min shaking interval.

The subject of series [3] is A549 lung adenocarcinoma cells. Nature of the series: Proliferation of A549 lung adenocarcinoma cells. The series is classed as cell-based, human. The conditions noted are these: for Selected from primary screen for growth inhibition of A549 cells at 50 µM: RPMI 1 mM glucose; for Selected for having an IC50 ratio (10 mM glucose : 1 mM glucose) of A549 growth higher than WBC-A: ratio of IC50 on 10 mM and 1 mM glucose, compared to WBC-A; for relative potency in reducing maximal growth rate of A549 cells: 1 mM glucose, 6.25-50 µM. How it is done:
(§2) For both adherent A549 and MCF10A H-RAS^V12 cell lines, growth curves were established using the IncuCyte® ZOOM technology. By collecting phase contrast images, the IncuCyte® software provides a calculated confluency percentage from which growth curves can be deducted. The cell number/density was measured by calculating the confluency of phase objects (cells) sticking on the bottom of the well. Cells were seeded at a density of 1000 - 1500 cells/well in a Nunc-Edge™ 96-well plate (Thermo Fisher Scientific) and growth was typically measured over 3 to 5 days. For the measurement of apoptosis induction using the MCF10A H-RAS^V12 cell line, the IncuCyte® Caspase-3/7 green dye was added to the medium in the recommended concentration at the beginning of the growth curve experiment. Apoptosis was detected by taking fluorescent images by excitation at 488 nm followed by IncuCyte® software analysis. Cell growth of the KMS-12-PE multiple myeloma cell line, which grows in suspension, was measured by manual cell counting. Cells were initially seeded at a density of 10^4 cells/well and incubated for 4 days after which the cell number was counted. For all cell lines, the same medium used for pregrowth was also used for the growth curve experiment, albeit with different glucose concentrations depending on the experimental design. With compound administration, the final concentration of DMSO never exceeded 0.1%. Typically, at least four technical repeats were included per condition.

The subject of series [4] is glucose uptake by wild type yeast cells. The series can be described thus: Zero-trans uptake of radioactive glucose in wild type yeast cells. The series is classed as cell-based, S. cerevisiae. How it is done:
as §1

Series [5] concerns glucose uptake by tps1Δ yeast cells. The series can be described thus: Zero-trans uptake of radioactive glucose in tps1Δ yeast cells. The series is classed as cell-based, S. cerevisiae. The conditions noted are these: tps1∆ cells, 2.5 mM glucose; read-out: IC50 values for 2.5 mM glucose uptake in tps1∆ cells. How it is done:
as §1

The subject of series [6] is MCF10A breast epithelial cell line transformed with H-RAS^V12. The series can be described thus: Growth and apoptosis of MCF10A H-RAS^V12 cells (IncuCyte). Format: cell-based, human. As to conditions: MCF10A H-RAS^V12, 1 mM glucose, 25 µM. How it is done:
as §2

A short description of series [7]: Solubility of compound stocks. The conditions noted are these: 100% DMSO. The series is classed as physicochemical. How it is done:
WBC-A and the complete structural analog library ( Supplementary Table 2 ) were purchased from different vendors, i.e. Enamine (n = 185), Life Chemicals (n = 10), LabNetwork (n = 4) and Uorsy (n = 4). WBC compounds in general are very insoluble in aqueous solutions, challenging their solubilization. Throughout this work, WBC compounds were always stock aliquoted at 50 mM concentration in 100% DMSO. In many cases, gentle sonication and heating up to 37°C was necessary to completely solubilize the compound stocks. Whereas WBC-A, -15C, -4C and -11C could be dissolved at 50 mM, some structural analogs remained in smooth or rough suspension, regardless of the concentration. Even though it is recommended to aliquot compound stocks, no significant decrease in compound strength by repeated freeze and thaw cycles in DMSO was observed.

The subject of series [8] is female NMRI-nu mice. The series can be described thus: In vivo toxicity and tolerability in mice. The conditions noted are these: for abnormalities / toxic effects in liver and other organs at autopsy: daily i.p., toxic effects at 20 mg/kg WBC-15C and at 20 and 10 mg/kg WBC-11C, not at lower doses; for loss in body weight: daily intraperitoneal injection, 5, 10 and 20 mg/kg; for AST/ALT ratio vs vehicle: sera after 20 days, 5, 10, 20 mg/kg daily i.p.; for blood glucose level vs vehicle: sera post-mortem after 20 days, 5, 10, 20 mg/kg daily i.p. How it is done:
Warbicin ® in vivo toxicity and tolerability was examined by subjecting female NMRI-nu mice (12 weeks old) to daily intraperitoneal injection of either WBC-A, WBC-15C, WBC-4C or WBC-11C. Compounds were dosed at either 5 mg/kg, 10 mg/kg or 20 mg/kg over a period of 20 days. Three mice were used per condition. To evaluate toxicity, change in body weight was registered daily. As a humane endpoint, mice that lost more than 20% of their original body weight were prematurely sacrificed. In addition, liver function was examined by measuring the ratio of the AST to ALT enzyme activities (AbCam ab105135, ab105134) in sera samples collected at the end of the experiment. Furthermore, the blood glucose level in mice sera was determined using the colorimetric GOD-PAP method. Due to their considerable hydrophobicity, the compounds were dissolved in a sterilized 1xPBS, 5% DMSO and 5% Tween-80 solution until a homogenous suspension was obtained that could be administered in a reproducible way.

Series [9] has as its system 2-deoxyglucose uptake in A549 lung adenocarcinoma cells. The series can be described thus: 2-deoxyglucose uptake in A549 lung adenocarcinoma cells. The series is classed as cell-based, human. The conditions noted are these: for pKi: read-out: Ki for 2-deoxyglucose uptake (Dixon plot). How it is done:
Zero-trans glucose uptake in A549 cells was approximated by measuring the uptake of [1,2-^3H]2-deoxyglucose. For this purpose, A549 cells were pregrown in RPMI medium containing 10 mM glucose in a 24-well plate to a cell density of around 100,000 cells/well. Prior to adding radioactive label, cells were gently washed twice in Krebs-Ringer-HEPES buffer (50 mM HEPES pH 7.4, 137 mM NaCl, 4.7 mM KCl, […], 1.3 mM MgSO4 and 0.1% w/v BSA) at 30°C to remove any residual sugar. RPMI medium without sugar containing the compound intended for treatment, was added to the cells for 15 min at 37°C to allow adequate interaction of the cells with the compound. The uptake measurement was initiated by adding an equal volume of medium containing radiolabeled 2DG. After 3 - 4 min incubation at 37°C, medium was aspirated and cells were gently washed three times with ice-cold Krebs-Ringer-HEPES buffer. Cells were lysed by adding 200 µL of ice-cold 0.1 M NaOH solution and incubating the plate for 10 min at 37°C. Cell lysates were transferred to scintillation vials for subsequent scintillation counting. For blank measurements, cells were incubated with 50 µM Cytochalasin B prior to the uptake measurement.

For series [10], the system named is A549 lung adenocarcinoma cells. The series can be described thus: Glucose consumption and lactate production over 8 h, A549. The series is classed as cell-based, human. As to conditions: A549, 25 µM, 1 mM glucose. How it is done: The influence of WBC compounds on glucose consumption over a longer time period was studied in the A549 adenocarcinoma and KMS-12-PE multiple myeloma cell lines. As such, different parameters needed to be optimized depending on whether cells were adherent or in suspension. As such, A549 cells were incubated at 125,000 cells/well in a 24-well plate in 300 µL RPMI medium for 8 h. For the KMS-12-PE cell line, 100,000 cells/well were incubated in 100 µL RPMI medium in a 96-well plate for 8 h. Medium was collected, spun down and HPLC-analyzed for measuring glucose and lactate levels. Metabolite levels were corrected for cell number, which always varied little over the span of 8 h. For every condition, at least 4 technical repeats were included.

The test system of series [11] is A549 lung adenocarcinoma cells. More on the design: method as in PMID 22689530. The conditions noted are these: previously reported; ref [67]; cited from earlier work.

pIC50, pKi: −log10 of the molar value.

As usually defined, the pIC50 is the negative decadic logarithm of the IC50, by convention in mol/L. As usually defined, the pKi is −log10 of the Ki, conventionally taken in molar units.

As to `N#CC(C#N)=NNc1cccc(Cl)c1` [CCCP, reference compound], in series [1], the “fructose uptake at tracer concentration” value is listed as “not that of fructose” and the “glucose uptake at tracer concentration” value is reported as “lowered the glucose uptake rate”.

Consider `CCN(C(=O)CSc1nc(C)nc2scc(-c3cccs3)c12)C1CCS(=O)(=O)C1` (centres unmarked) [WBC-2C], for which, in series [2], the “Rescue of the tps1∆ strain on 2.5 mM glucose at 100 µM” value (from here on “Rescue of the tps1∆ strain”) was “Yes” and the “Minimal rescue concentration for growth of tps1∆ cells on 2.5 mM glucose” value worked out at 1.562 µM. For the same molecule, in [3], the “Selected from primary screen for growth inhibition of A549 cells at 50 µM” value is “Yes” and the “Selected for having an IC50 ratio (10 mM glucose : 1 mM glucose) of A549 growth higher than WBC-A” value (shortened to “Selected for having an IC50 ratio”) is “Lower IC50 ratio”. Further, the “type of inhibition of glucose uptake (Lineweaver-Burk)” value in series [4] is recorded as “mixed type of inhibition”. Further, in [4] (radioactive glucose, 10 s, read-out: IC50 for inhibition of 2.5 mM glucose uptake), the pIC50 was 5.70. Moreover, the pKi in series [4] (read-out: Ki (Dixon plot) for glucose uptake) was 5.84. Moreover, the negative logarithm of the IC50 (pIC50) in [5] is 5.70.

Consider `Cc1nc(NCC(=O)NCc2ccco2)c2c(-c3ccccc3)csc2n1` [WBC-4C], for which the “Rescue of the tps1∆ strain” value in series [2] was “No”. Further, the inhibition of proliferation entry in series [6] is recorded as “highest potency”. Also, in [3], the “Selected from primary screen for growth inhibition of A549 cells at 50 µM” value is given as “Yes”; the “relative potency in reducing maximal growth rate of A549 cells” value is “intermediate potency”; the “Selected for having an IC50 ratio” value is “Higher IC50 ratio and confirmed”. For the same molecule, the “concentration at which compound could be dissolved” value in series [7] is at least 50000 µM. In addition, the “abnormalities / toxic effects in liver and other organs at autopsy” value in series [8] (20 days) is listed as “No other abnormalities”. Moreover, in [8] (nude mice, 20 days), the “loss in body weight” value was “one single mouse treated with 20 mg/kg WBC-4C that was sacrificed at day 19 because of 20% weight loss”. Further, in [8], the “AST/ALT ratio vs vehicle” value is given as “No significant difference” and the “blood glucose level vs vehicle” value is given as “No significant difference”. In series [9], the “type of inhibition of 2-deoxyglucose uptake (Lineweaver-Burk)” value is on record as “noncompetitive” and the pKi was 4.57. Moreover, the “K'i for 2-deoxyglucose uptake” value in series [9] (Dixon plot (Ki = K'i) or Cornish-Bowden plot (WBC-11C)) stood at 26.75 µM. Also, the “inhibition of glucose consumption and lactate production” value in series [10] was “inhibited glucose consumption and lactate production”.

Turning to `Cc1nc(NCC(=O)Nc2ccccc2Br)c2c(-c3cccs3)csc2n1` [WBC-15C], the “Rescue of the tps1∆ strain” value in [2] is on record as “No”. In series [3], the “Selected from primary screen for growth inhibition of A549 cells at 50 µM” value was “Yes”; the “relative potency in reducing maximal growth rate of A549 cells” value is “least potent”; the “Selected for having an IC50 ratio” value is “Higher IC50 ratio and confirmed”. In addition, the “concentration at which compound could be dissolved” value in [7] was at least 50000 µM. The “abnormalities / toxic effects in liver and other organs at autopsy” value in series [8] (20 days) was “toxic effects were seen in the liver and other organs”. Besides, the “adipose tissue at autopsy” value in series [8] (nude mice, daily i.p., 5, 10 and 20 mg/kg, 20 days, visual inspection vs vehicle) is “adipose tissue was also observed in between the intestines”. Also, in series [8] (nude mice, 20 days), the “loss in body weight” value is reported as “no significant loss in body weight”. In [8], the “AST/ALT ratio vs vehicle” value is given as “No significant difference” and the “blood glucose level vs vehicle” value is “No significant difference”. Besides, in series [9], the “type of inhibition of 2-deoxyglucose uptake (Lineweaver-Burk)” value was “competitive” and the pKi was 4.47. In addition, the “inhibition of glucose consumption and lactate production” value in series [10] was “inhibited glucose consumption and lactate production”.

Regarding `O=C(Oc1cccc(F)c1OC(=O)c1cccc(O)c1)c1cccc(O)c1` [WZB-117], in series [11], the “inhibition of A549 proliferation” value is reported as “inhibition of its proliferation”.
